Measurements published in patent publication US20060287247A1, “Halogen-substituted thienyl compounds” (priority 2001, published 2006).
Converted amounts (≈) assume the structure as drawn.

Legend:
[1] = system: S. aureus ATCC 29213; assay: NCCLS broth microdilution MIC; assay type: cell-based, Staphylococcus aureus; conditions: for Minimum Inhibitory Concentration (MIC): A = S. aureus ATCC 29213
Procedure: (§1) Compounds according to this invention were screened for their in vitro activities against selected species of bacteria and fungi. The minimal inhibition concentration (MIC) of these compounds was determined using the National Committee for Clinical Laboratory Standards (NCCLS) broth microdilution assay in microtiter plates, as set forth in: (1) the guidelines of the National Committee for Clinical Laboratory Standards (NCCLS) Document M7-A4 (NCCLS, 1997); (2) the guidelines of the National Committee for Clinical Laboratory Standards (NCCLS) Document M11-A4 (NCCLS, 1997); and (3) the guidelines and reference method of the National Committee for Clinical Laboratory Standards (NCCLS) Document M27-T (NCCLS, 1995). For antifungal essays, the method recommended in Murray, P R., 1995 Manual of Clinical Microbiology (ASM Press, Washington, D.C.), was employed. […]

[2] = system: E. faecalis ATCC 29212; assay: NCCLS broth microdilution MIC; assay type: cell-based, Enterococcus faecalis; conditions: for Minimum Inhibitory Concentration (MIC): B = E. faecalis ATCC 29212
Procedure: as §1

[3] = system: E. coli ATCC 25922; assay: NCCLS broth microdilution MIC; assay type: cell-based; conditions: for Minimum Inhibitory Concentration (MIC): D = E. coli ATCC 25922
Procedure: as §1

[4] = system: B. cereus ATCC 11778; assay: NCCLS broth microdilution MIC; assay type: cell-based, Bacillus cereus; conditions: for Minimum Inhibitory Concentration (MIC): C = B. cereus ATCC 11778
Procedure: as §1

[5] = system: S. pneumoniae ATCC 49619; assay: NCCLS broth microdilution MIC; assay type: cell-based, Streptococcus pneumoniae; conditions: for Minimum Inhibitory Concentration (MIC): F = S. pneumoniae ATCC 49619
Procedure: as §1

[6] = system: C. albicans ATCC 38247; assay: NCCLS broth microdilution MIC (antifungal); assay type: cell-based; conditions: for Minimum Inhibitory Concentration (MIC): E = C. albicans ATCC 38247
Procedure: as §1

SMILES | Minimum Inhibitory Concentration (MIC) [1] | Minimum Inhibitory Concentration (MIC) [2] | Minimum Inhibitory Concentration (MIC) [3] | Minimum Inhibitory Concentration (MIC) [4] | Minimum Inhibitory Concentration (MIC) [5] | Minimum Inhibitory Concentration (MIC) [6] | MIC ([1]; Staphylococcus aureus, ATCC29213, read-out: Minimum Inhibitory Concentration (MIC)) | MIC ([2]; Enterococcus faecalis, ATCC29212, read-out: Minimum Inhibitory Concentration (MIC)) | MIC ([3]; Escherichia coli, ATCC25922, read-out: Minimum Inhibitory Concentration (MIC)) | MIC ([4]; Bacillus cereus, ATCC11778, read-out: Minimum Inhibitory Concentration (MIC)) | MIC ([5]; Streptococcus pneumoniae, ATCC49619, read-out: Minimum Inhibitory Concentration (MIC)) | MIC ([6]; Candida albicans, ATCC38247, read-out: Minimum Inhibitory Concentration (MIC))
Cc1csc(C(=O)Nc2cc(C(=O)Nc3cc(C(=O)Nc4cc(C(=O)NCCN5CCOCC5)n(C)c4)n(C)c3)n(C)c2)c1Cl [Ie-11] | +++ (+++ = MIC ≦4) | +++ (+++ = MIC ≦4) | >32 µg/mL | +++ (+++ = MIC ≦4) | +++ (+++ = MIC ≦4) | >32 µg/mL |  |  |  |  |  | 
Cn1cc(NC(=O)c2cc(NC(=O)c3cc(NC(=O)c4sccc4Cl)cn3C)cn2C)cc1C(=O)NCCN1CCOCC1 [Ie-6] | +++ (+++ = MIC ≦4) | +++ (+++ = MIC ≦4) | >32 µg/mL | +++ (+++ = MIC ≦4) | +++ (+++ = MIC ≦4) | >32 µg/mL |  |  |  |  |  | 
Cn1cc(NC(=O)c2cc(NC(=O)c3cc(NC(=O)c4sccc4F)cn3C)cn2C)cc1C(=O)NCCN1CCOCC1 [Ie-5] | +++ (+++ = MIC ≦4) | >32 µg/mL | >32 µg/mL | +++ (+++ = MIC ≦4) | +++ (+++ = MIC ≦4) | >32 µg/mL |  |  |  |  |  | 
Cn1cc(NC(=O)c2cc(NC(=O)c3cc(NC(=O)c4ccc(Br)s4)cn3C)cn2C)cc1C(=O)NCCCC(=O)Nc1cn(C)c(C(=O)Nc2cc(C(=O)Nc3cc(C(=O)Nc4cc(C(=O)NCCC(=O)NCCCN5CCNCC5)n(C)c4)n(C)c3)n(C)c2)n1 [If-2] | >32 µg/mL | >32 µg/mL | >32 µg/mL | >32 µg/mL | >32 µg/mL | >32 µg/mL |  |  |  |  |  | 
CN(C)CCCNC(=O)CCNC(=O)c1cc(NC(=O)c2cc(NC(=O)CCNC(=O)c3cc(NC(=O)c4cc(NC(=O)c5sccc5F)cn4C)cn3C)cn2C)cn1C [Id-30] | >32 µg/mL | >32 µg/mL | >32 µg/mL | >32 µg/mL | ++ (++ = MIC between 4 and 12) | >32 µg/mL |  |  |  |  |  | 
Cn1cc(NC(=O)c2cc(NC(=O)c3cc(NC=O)cn3C)cn2C)cc1C(=O)NCCC(=N)N [Distamycin, distamycin, reference compound] |  |  |  |  |  |  | 12 to 32 µg/mL (≈ 24.9 to 66.5 µM) | 12 to 32 µg/mL (≈ 24.9 to 66.5 µM) | > 32 µg/mL | 4 to 12 µg/mL (≈ 8.31 to 24.9 µM) | 12 to 32 µg/mL (≈ 24.9 to 66.5 µM) | > 32 µg/mL
CN(C)CCCNC(=O)c1cc(NC(=O)c2cc(NC(=O)c3cc(NC(=O)c4sccc4F)cn3C)cn2C)cn1C [Ie-4] | ++ (++ = MIC between 4 and 12) | ++ (++ = MIC between 4 and 12) | >32 µg/mL | + (+ = MIC from 12 to 32, inclusive) | +++ (+++ = MIC ≦4) | >32 µg/mL |  |  |  |  |  | 
Cn1cc(NC(=O)c2cc(NC(=O)CCNC(=O)c3cc(NC(=O)c4cc(NC(=O)c5cc(Br)c(Br)s5)cn4C)cn3C)cn2C)cc1C(=O)NCCC(=O)NCCCN1CCNCC1 [Id-13] | >32 µg/mL | >32 µg/mL | >32 µg/mL | >32 µg/mL | >32 µg/mL | >32 µg/mL |  |  |  |  |  | 
Cn1cc(NC(=O)c2cc(NC(=O)CCNC(=O)c3cc(NC(=O)c4cc(NC(=O)c5cc(Br)c(Br)s5)cn4C)cn3C)cn2C)cc1C(=O)NCCC(=O)NCCCCN [Id-8] | >32 µg/mL | +++ (+++ = MIC ≦4) | >32 µg/mL | >32 µg/mL | +++ (+++ = MIC ≦4) | >32 µg/mL |  |  |  |  |  | 
CCNCCNC(=O)CCNC(=O)c1cc(NC(=O)c2cc(NC(=O)CCNC(=O)c3cc(NC(=O)c4cc(NC(=O)c5cc(Br)c(Br)s5)cn4C)cn3C)cn2C)cn1C [Id-12] | +++ (+++ = MIC ≦4) | +++ (+++ = MIC ≦4) | >32 µg/mL | +++ (+++ = MIC ≦4) | +++ (+++ = MIC ≦4) | >32 µg/mL |  |  |  |  |  | 
CN(C)CCCNC(=O)CCNC(=O)c1cc(NC(=O)c2cc(NC(=O)CCNC(=O)c3cc(NC(=O)c4cc(NC(=O)c5sccc5Cl)cn4C)cn3C)cn2C)cn1C [Id-27] | ++ (++ = MIC between 4 and 12) | >32 µg/mL | >32 µg/mL | +++ (+++ = MIC ≦4) | +++ (+++ = MIC ≦4) | + (+ = MIC from 12 to 32, inclusive) |  |  |  |  |  | 
CN(C)CCCNC(=O)CCNC(=O)c1cc(NC(=O)c2cc(NC(=O)c3cc(NC(=O)c4nc(NC(=O)CCCNC(=O)c5cc(NC(=O)c6cc(NC(=O)c7cc(NC(=O)c8cc(Br)c(Br)s8)cn7C)cn6C)cn5C)cn4C)cn3C)cn2C)cn1C [If-1] | >32 µg/mL | >32 µg/mL | >32 µg/mL | >32 µg/mL | >32 µg/mL | >32 µg/mL |  |  |  |  |  | 
Cn1cc(NC(=O)c2cc(NC(=O)CCNC(=O)c3cc(NC(=O)c4cc(NC(=O)c5cc(Br)c(Br)s5)cn4C)cn3C)cn2C)cc1C(=O)NCCC(=O)NCCCN [Id-9] | +++ (+++ = MIC ≦4) | +++ (+++ = MIC ≦4) | >32 µg/mL | +++ (+++ = MIC ≦4) | +++ (+++ = MIC ≦4) | >32 µg/mL |  |  |  |  |  | 
Cn1cc(NC(=O)c2cc(NC(=O)CCNC(=O)c3cc(NC(=O)c4cc(NC(=O)c5ccc(Br)s5)cn4C)cn3C)cn2C)cc1C(=O)NCCC(=O)NCc1cccnc1 [Id-23] | >32 µg/mL | +++ (+++ = MIC ≦4) | >32 µg/mL | >32 µg/mL | +++ (+++ = MIC ≦4) | >32 µg/mL |  |  |  |  |  | 
Cn1cc(NC(=O)c2cc(NC(=O)CCNC(=O)c3cc(NC(=O)c4cc(NC(=O)c5cc(Br)c(NCCCN)s5)cn4C)cn3C)cn2C)cc1C(=O)NCCC(=O)NCCCN [Id-25] | + (+ = MIC from 12 to 32, inclusive) | + (+ = MIC from 12 to 32, inclusive) | >32 µg/mL | +++ (+++ = MIC ≦4) | +++ (+++ = MIC ≦4) | >32 µg/mL |  |  |  |  |  | 
